Measurements: patent publication US20240269104A1, “METHOD FOR TREATING PARKINSON'S DISEASE” (Olatec Therapeutics, Inc., priority 2021, published 2024)

Assays:
IL-17A = IL-17A in brain homogenates by ELISA after MPTP; assay type: in vivo, mice; conditions: 200 mg/kg once each day; seven days after MPTP-acute; MPTP+saline 58 pg/μg
Excerpt: (§1) It has been reported that administration of MPTP induces the assembly of NLPR3 inflammasome in the brain. Mice were sacrificed after anesthesia by cervical dislocation at 4 and 7 days after MPTP administration. Brains were collected, and the striatum (St) and ventral midbrain (VM) areas of both hemispheres were excised and frozen in liquid nitrogen. Samples were homogenized in RIPA buffer (Thermo Fisher, Waltham, MA) supplemented with protease inhibitor (Thermo Fisher) using a TissueRuptor (Qiagen, Germantown, MD). Protein concentration was determined using a BCA Protein Assay Kit (Thermo Fisher) according to manufacturer's instructions. Samples were diluted to 2 mg/ml in the same extraction buffer.
(§2) Levels of IL-1β, IL-18, IL-6, and IL-17A from brain homogenates were measured by ELISA DuoSet kit (R&D Systems, Minneapolis, MN). ELISA kit for IL-1β detects 92-95% of the 17 kDa form and only 8-5% of the precursor form of this cytokine. 96-well plates (ThermoFisher Scientific) were coated with capture antibody. Samples were incubated for two hours at room temperature. Detection antibodies and streptavidin-HRP were added. TMB ELISA (cBioscience, San Diego, CA) was used as substrate solution. Results were measured in a microplate reader (Bio-Tek, Santa Clara, CA). Final values were normalized by the protein concentration of each sample. 4-5 mice per group were used for each cytokine.

dopaminergic neurons = assay: tyrosine hydroxylase (TH) immunostaining of the nigrostriatal pathway after MPTP; assay type: in vivo, mice; conditions: 200 mg/kg for 7 days; seven days after MPTP-acute
Experimental: To evaluate the effect of dapansutrile on dopaminergic neurons, mice were subjected to MPTP acute administration. Seven days after, when the levels of dopaminergic neurons are lower, the nigrostriatal pathway was evaluated by tyrosine hydroxylase (TH) immunostaining to assess the viability of dopaminergic neurons. Mice were perfused with 4% paraformaldehyde (Sigma-Aldrich) in PBS. Brains were removed and immersed in the same perfusion buffer overnight and then cryoprotected with 30% sucrose in 0.1M PBS at 4° C. After dehydration, samples were embedded in paraffin molds for sectioning. Coronal brain sections (4 μm thick) containing the St and SNpc were obtained and transferred to glass microscope slides. After antigen retrieval, slides were incubated with primary anti-TH antibody (1:2000, Abcam, Cambridge, UK) for 30 minutes at room temperature. TH antibody binding was detected using an anti-rabbit HRP-conjugated secondary polymer, followed by chromogenic visualization with diaminobenzidine (DAB, Cell Signaling). Hematoxylin counterstain was used to visualize nuclei. Processing of the samples was performed by Inotiv Boulder (Boulder, CO). Dopaminergic immunoreactivity in the St was calculated by measuring the integrated density by NIH ImageJ software. Stereological counting in the SNpc was performed by manual quantification of TH-positive neurons. Three sections per mice were used. Five mice were used for the sham+saline group, and seven mice were used for the MPTP group.

TNFα = TNFα RNA in the brain by qPCR after MPTP; assay type: in vivo, mice; conditions: 200 mg/kg oral gavage; striatum piece, 24 hours after first MPTP injection
Experimental: Mice were treated dapansutrile or saline and injected with MPTP as described in Example 2.
24 hours after the first injection of MPTP, mice were sacrificed. A piece of brain, centered in the striatum, was taken from each mouse and frozen in liquid nitrogen. Samples were homogenized with Trizol lysis reagent (Thermo Fisher) following the manufacturer's protocol. 1 μg of RNA from each sample was reversely transcribed using the High-Capacity Reverse Transcription kit (Applied BioSystems).
Gene expression measures were performed through qPCR using SYBR Green master mix (Applied Biosystems) and recommended thermal cycling parameters: 1 cycle of polymerase activation for 10 min at 95° C. and 40 cycles of denaturalization for 15 sec at 95° C. plus annealing/extension for 1 min at 60° ° C. (capture). Gene levels of TNFα (a pro-inflammatory cytokine) were normalized to the relation ratio of expression of the GADPH gene following the ΔΔCT method. Primers sequences are detailed below. Final fold-change values were obtained by normalization with naïve condition.

TREM2 = TREM2 immunoblotting in the striatum after MPTP-acute administration; assay type: in vivo, mice; conditions: 200 mg/kg once each day; day 4 after MPTP-acute
Experimental: In this example, we measured the levels of […] (TREM2) after dapansutrile treatment. TREM2 may be a potential target for treating PD. For TREM2, mice were sacrificed at day 4 after MPTP-acute administration. The St was excised, and proteins were extracted and quantified as described in Example 9. 30 μg of protein per sample were resolved in a Mini-PROTEAN TGX 4-20% gradient gel (Bio-Rad, Hercules, CA) in 0.1% SDS running buffer (Bio-Rad). The gel was transferred to a […] nitrocellulose membrane (GE Healthcare, Chicago, IL). Membranes were blocked with 5% blocking buffer (Bio-Rad) in TBS 0.1% (v/v) Tween solution for one hour at room temperature. Samples were incubated overnight with primary antibody for mouse TREM2 (1:1000, Cell Signaling, Danvers, MA). Peroxidase-conjugated secondary antibody (Jackson ImmunoResearch, Philadelphia, PA) and chemiluminescence were used to detect the protein concentration. Conjugated antibody against β-actin (Santa Cruz Biotechnology, Dallas, TX) was used to normalize protein concentrations. Protein bands for monomeric and oligomeric forms of each individual mice were quantified using NIH ImageJ software. Four mice per group were used.

IL-18 = IL-18 in brain homogenates by ELISA after MPTP; assay type: in vivo, mice
Experimental: Mice were treated with dapansutrile or saline and injected with MPTP as described in Example 2.
At three days after MPTP, mice were sacrificed and levels of IL-18 in the brain were measured. Briefly, the brain was removed from the mouse and a piece of the striatum was homogenized. Levels of proteins were normalized to 2 mg/ml and IL-18 was measured using the mouse IL-18 ELISA from R and D Systems.
as §1, §2

IL-1α = IL-1α in LPS-stimulated cultured splenocytes from MPTP-injected mice; assay type: in vivo; conditions: mice treated 200 mg/kg for seven days; splenocytes cultured with LPS, cell lysate
Experimental: Seven days after MPTP-acute administration, peripheral blood and spleen were isolated from each mouse, and hematological changes in the peripheral blood and cytokine production in the spleen were evaluated. […] White blood cells, lymphocytes, monocytes, and granulocytes were measured from the peripheral blood using a HemaTrue cell counter (Heska, Loveland, CO). Spleens were isolated and mechanically passed through a 70 μm cell strainer (ThermoFisher) in PBS. Cells were plated in a 96-well plate at a concentration of 200,000 cells/well in RPMI medium (Coring, New York, NY) with 10% FBS. After that, cells were stimulated with LPS at 1 μg/ml and 5 μg/ml. RPMI medium was used as control. After 72 hours, supernatant was isolated to measure the levels of IL-6. Cells were lysed with RIPA buffer (ThermoFisher) supplemented with protease inhibitor (ThermoFisher) to measure IL-1α levels. In both cases, 5-6 mice per group were used.

[1] = 200 mg/kg once each day, four days after MPTP-acute

Structure (SMILES): CS(=O)(=O)CCC#N [dapansutrile, 3-methanesulfonylpropionitrile]
- levels of IL-17A in the ventral midbrain (VM) after treatment (IL-17A): 46 pg/µg
- TH-positive fibers and neurons versus control mice (dopaminergic neurons): no significant changes against control mice were observed
- density of TH-positive fibers in the striatum versus MPTP mice treated with saline (dopaminergic neurons): increase
- increase of TH-positive neurons in the SNpc (dopaminergic neurons): 3 times
- expression of TNFα RNA in the brain (TNFα): reduces the expression of TNFα RNA in the brain
- levels of 35 kDa-glycosylated form of TREM2 in the striatum (TREM2): no changes
- levels of nonglycosylated form of TREM2 (28 kDa) in the striatum (TREM2): significantly increased, reaching basal condition
- levels of IL-18 in the ventral midbrain (VM) (IL-18; [1]): no changes associated to dapansutrile
- reduction in the levels of IL-18 in the striatum (St) versus MPTP mice treated with saline (IL-18; [1]): 15%
- levels of IL-18 in the brain in comparison with mice treated with water (IL-18; 200 mg/kg oral gavage, striatum, three days after MPTP): reduced the levels of IL-18 in the brain
- reduction of the level of intracellular IL-1α in splenocytes (IL-1α): 40%
